Data on five molecules can be found in patent publication US8388966B2, “Combination treatment of pancreatic cancer” (Cancer Advances, Inc., priority 2001, dated 2013).

The subject of one data set is AR42J cells. The settings on record: 1 nM CI-988; gastrin 1 nM; after 96 hours of treatment; cited from earlier work.
Another data set has as its system pancreatic tumor. Briefly: In vivo pancreatic tumor weight. The method, then: This second part of the example depicts cell proliferation of human pancreatic cell lines, PANC-1, BxPC3 and PAN-1 using a tetrazolium-based combined with anti-gastrin G17 antibodies induced by G17DT (10-500 μg/ml). The G17DT elicited antibodies are active against both serum-associated and tumor-secreted, proliferative forms of gastrin. The PAN-1 cell were administered at clinically reflective doses.
In vivo G17DT alone inhibited basal pancreatic tumor weight by 33% (p=0.016, ANOVA) compared to 38% for Gemcitabine (p=0.004, ANOVA). When combined the agents inhibited tumor weight by 55% which was significant from G17DT alone (p=0.025). Thus the immunological agent G17DT may promote the therapeutic efficacy of Gemcitabine.

The conditions of data set [1]: after IV administration; cited from earlier work.
For data set [2] the following is noted: in vivo; cited from earlier work.
The conditions of data set [3]: in vivo; cited from earlier work. The source holds these as a separate data set.
Data set [4] relates to hormone-refractory prostate cancer. The settings on record: 75 mg/m^2 every 21 days, cited from earlier work.
Data set [5] has as its system gastrin-sensitive mouse colon tumor, MC26. The settings on record: xenograft mice bearing MC26; 25 days in control animals; cited from earlier work.

Structures can show the parent of a compound that is named as a salt.

For the molecule `C[C@](Cc1c[nH]c2ccccc12)(NC(=O)OC1[C@H]2C[C@@H]3C[C@@H](C[C@H]1C3)C2)C(=O)NC[C@H](NC(=O)CCC(=O)O)c1ccccc1` (stereo partly drawn) [CI-988], in the data set with AR42J cells, the “inhibition of proliferation of gastrin-stimulated AR42J cells” value was “about 47%”.
On to `Nc1ccn([C@@H]2O[C@H](CO)[C@@H](O)C2(F)F)c(=O)n1` [Gemcitabine, 2′, 2′, difluorodeoxycytidine], for which the “inhibition of basal pancreatic tumor weight” value in the data set with pancreatic tumor is 38%. Besides, the “excreted unchanged as gemcitabine” value in data set [1] is 5%. In data set [2], the cumulative toxicity result is “no evidence of cumulative toxicity” and the overall toxicity entry was “moderate”.
For the molecule `CCc1c2c(nc3ccc(OC(=O)N4CCC(N5CCCCC5)CC4)cc13)-c1cc3c(c(=O)n1C2)COC(=O)[C@]3(O)CC` [Irinotecan, (S)-4,1-diethyl-3,4,12,14-tetrahydro-4-hydroxy-3,14-dioxi-[H-pyrano[3′,4′:67]-indolizino[1,2-b]quinolin-9-yl-[1,4′-bipiperidine]-1′-carboxylate, monohydrochloride, trihydrate], in data set [3], the G1 adverse effects result is “early and late diarrhea”; the “adverse effects in addition to the G1 manifestations” value is “myelosuppresion and hypersensitivity reactions”.
For the molecule `CC(=O)O[C@@]12CO[C@@H]1C[C@H](O)[C@@]1(C)C(=O)[C@H](O)C3=C(C)[C@@H](OC(=O)[C@H](O)[C@@H](NC(=O)OC(C)(C)C)c4ccccc4)C[C@@](O)([C@@H](OC(=O)c4ccccc4)[C@H]21)C3(C)C` [docetaxel], the median overall survival in data set [4] is on record as 27 months. Moreover, the “patients with response (more than 40% PSA decline and more than 50% reduction of bi-dimensional cross-products)” value in data set [4] (including one complete response) was 17 of the 35. The “median duration of responses” value in data set [4] (range 2 to 24 months) is listed as “nine”. In data set [4] (two deaths during the study), the toxicity result was “remained tolerable throughout the treatment”.
Turning to `CCCN(CCC)C(=O)C(CCC(=O)O)NC(=O)c1ccccc1` (stereo not drawn) [proglumide], the survival in data set [5] was 39 days.
